Results reported in PubChem BioAssay (NCI).
“And” between values parts separate entries of the source, which are not always exact repeats. Equal entries are not always repeated.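 Where inhibition never reached the appropriate level, the endpoint shown equals the highest concentration tested. Otherwise, values were interpolated linearly from a five-concentration, 48-hour dose response in 96-well plates. GI50 marks 50% less growth. At the TGI there is no net growth.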

Experiments:
Test in all cases: DTP human tumour cell line panel, 48 h
[1] = tested on: MDA-MB-231 breast
[2] = tested on: LOX IMVI melanoma
[3] = tested on: OVCAR-3 ovarian
[4] = tested on: UACC-257 melanoma
[5] = tested on: HT29 colon
[6] = tested on: PC-3 prostate
[7] = tested on: UACC-62 melanoma
[8] = tested on: SK-OV-3 ovarian
[9] = tested on: KM12 colon
[10] = tested on: SNB-19 CNS

Structure (SMILES) | GI50 [1] | TGI [1] | GI50 [2] | TGI [2] | GI50 [3] | TGI [3] | GI50 [4] | TGI [4] | GI50 [5] | TGI [5] | GI50 [6] | TGI [6] | GI50 [7] | TGI [7] | GI50 [8] | TGI [8] | GI50 [9] | TGI [9] | GI50 [10] | TGI [10]
COc1cccc(NC(=O)c2ccc(NC3=C(Cl)C(=O)N(Cc4ccccc4)C3=O)cc2)c1 | 16.7 µM | 36.1 µM | 2.71 µM | 9.11 µM | 3.29 µM | 15.3 µM | 16.2 µM | 38.5 µM | 5.74 µM | 17.4 µM | 13.1 µM | 28.5 µM | 15.4 µM | 28.8 µM | 30.5 µM | 85.4 µM | 16.9 µM | 40.3 µM | 19.1 µM | 60.1 µM
COC(=O)[C@H](Cc1cn(C)cn1)NC(=O)[C@@H](NC(=O)Nc1cc(C(F)(F)F)cc(C(F)(F)F)c1)C(C)(C)C | > 10 µM | > 10 µM | > 10 µM | > 10 µM | > 10 µM | > 10 µM | > 10 µM | > 10 µM | > 10 µM | > 10 µM | > 10 µM | > 10 µM | > 10 µM | > 10 µM | > 10 µM | > 10 µM | > 10 µM | > 10 µM | > 10 µM | > 10 µM
CC1=CC2=C(C#N)C(=O)OC2(C)C(c2ccccc2)C1 (stereo not given) |  | > 100 µM |  | > 100 µM |  | > 100 µM |  | > 100 µM |  | > 100 µM |  | > 100 µM |  | > 100 µM |  | > 100 µM |  | > 100 µM |  | > 100 µM
N#Cc1ccc(NC(=O)Nc2nc3ccc(OC(F)(F)F)cc3s2)cc1 | 0.935 µM | 3.65 µM | 1.47 µM | 4.67 µM | 0.577 µM | 14.3 µM | 1.35 µM | 6.4 µM | 2.07 µM | 10 µM | 1.36 µM | 12.2 µM | 0.737 µM | 3.87 µM | 2.65 µM | 11.1 µM | 1.02 µM | 6.89 µM | 1.5 µM | 13.9 µM
S=C1SCN(C2CCCCCCCCCCC2)CN1C1CCCCCCCCCCC1 |  | > 100 µM |  | > 100 µM |  | > 100 µM |  | > 100 µM |  | > 100 µM |  | > 100 µM |  | > 100 µM |  | > 100 µM |  | > 100 µM |  | > 100 µM
Clc1nc(-c2ccccc2)nc(Cl)c1Cl |  | 27.1 µM |  | 5.6 µM |  | 21.7 µM |  | 28.2 µM |  | 27.6 µM |  | 24.6 µM |  | 27.8 µM |  | 27 µM |  | 25.3 µM |  | > 54.2 µM
O=C1CCC(N2C(=O)c3cccc(NCCOCCOCCNC(=O)c4cc5c(o4)C(=O)c4ccccc4C5=O)c3C2=O)C(=O)N1 (stereo not given) | 2.29 µM | 7.31 µM | 1.1 µM | 2.5 µM | 0.295 µM | 1.03 µM | 1.48 µM | 2.85 µM | 3.35 µM | > 100 µM | 2.42 µM | 15.1 µM | 1.46 µM | 2.98 µM | 3.09 µM | 7.78 µM | 3.19 µM | 10.9 µM | 1.55 µM | 3.52 µM
CCC1(N)C(=O)OCc2c1cc1n(c2=O)Cc2cc3ccccc3nc2-1 (stereo not given) | 49.3 µM | > 100 µM |  | 28.2 µM and 33.6 µM | 17.2 µM | 42.6 µM and > 100 µM | 24.4 µM | > 100 µM |  | > 100 µM |  | > 100 µM | 3.89 µM | 20.5 µM and 14.1 µM | 8.99 µM | 72 µM and > 100 µM | 26.1 µM | > 100 µM |  | > 100 µM
CN(C)C1C(=O)C(C(N)=O)=C(O)C2(O)C(=O)C3=C(O)c4c(O)cccc4C(C)(O)C3CC12 (stereo not given) | 26.2 µM and > 100 µM | > 100 µM |  | 76.5 µM and > 100 µM | 44.5 µM and > 100 µM | > 100 µM |  | > 100 µM | 27.2 µM and > 100 µM | 67.9 µM and > 100 µM |  | > 100 µM | 31.7 µM and 90.9 µM | > 100 µM |  | > 100 µM |  | > 100 µM |  | 
CC1(C)OC2COC(c3[nH]nc4c(=O)[nH]c(=O)[nH]c34)C2O1 (stereo not given) |  | > 100 µM |  | > 100 µM |  | > 100 µM |  | > 100 µM |  | > 100 µM |  | > 100 µM |  | > 100 µM |  | > 100 µM |  | > 100 µM |  | > 100 µM
COC(=O)CCCNC(=O)C(=O)c1c(O)c(O)c(C(C)C)c2cc(C)c(-c3c(C)cc4c(C(C)C)c(O)c(O)c(C(=O)C(=O)NCCCC(=O)OC)c4c3O)c(O)c12 | 0.743 µM | 2.99 µM | 0.537 µM | 1.48 µM | 0.32 µM | 3.46 µM | 1.77 µM | 6.19 µM | 0.542 µM | 3.81 µM | 0.258 µM | 8.65 µM | 0.657 µM | 2.07 µM | 0.855 µM | 2.57 µM | 0.164 µM | 4.58 µM | 0.167 µM | 7.1 µM
COCC(=O)NC/C=C/c1ccc2ncnc(Nc3ccc(Oc4ccc(C)nc4)c(C)c3)c2c1 | 12.7 µM | 36.1 µM | 15 µM | 33.8 µM | 10.4 µM | 28 µM | 14.9 µM | 36.1 µM | 15.5 µM | 39.4 µM | 15.5 µM | > 83.1 µM | 10.6 µM | 34 µM | 0.295 µM | 4.52 µM | 18.7 µM | 53 µM | 18.4 µM | > 100 µM
CC(C)Cc1ccc(C(C)/C=C2\CCC(CN3CCCCC3)C2=O)cc1 (stereo not given) |  | 17.2 µM |  | 3.99 µM |  | 11 µM |  | 26.4 µM |  | 15.9 µM |  | 17.5 µM |  | 24.2 µM |  | 34.9 µM |  | 6.36 µM |  | 19.6 µM
CSC1SCC2C(=O)N(C)C(C(C)C)C(=O)OCC(NC(=O)c3cnc4ccccc4n3)C(=O)NC(C)C(=O)N(C)C1C(=O)N(C)C(C(C)C)C(=O)OCC(NC(=O)c1cnc3ccccc3n1)C(=O)NC(C)C(=O)N2C (stereo not given) |  | 0.00192 µM and 0.00985 µM and 0.0142 µM | < 0.001 µM |  | < 0.001 µM |  | < 0.001 µM |  | < 0.001 µM |  |  | 0.0132 µM and 0.0224 µM | < 0.001 µM |  | 0.00174 µM |  | < 0.001 µM |  | < 0.001 µM | 
COc1ccccc1N1CCN(CCCOc2ccc(C(=O)/C=C3/C(=O)Nc4ccccc43)cc2)CC1 | 9.63 µM | 37.6 µM | 11.8 µM | 26.4 µM | 7.37 µM | 42.3 µM | 9.79 µM | 35.5 µM | 3.13 µM | 12.2 µM | 12 µM | > 100 µM | 11.9 µM | 28.4 µM | 28.2 µM | > 100 µM | 8.2 µM | 24.8 µM | 40.6 µM | > 100 µM
O=C(Nc1ccc(-n2ccc3c(NC(=O)c4ccccc4)nccc32)cc1)c1ccc(N2CCOCC2)c(C(F)(F)F)c1 | 4.07 µM | > 60.9 µM | 0.0334 µM | 7.06 µM | 0.254 µM | 9.89 µM | 3.61 µM | 55.5 µM | 0.0476 µM | 3.71 µM | 1.02 µM | 52.5 µM | 0.331 µM | 21.7 µM | 0.509 µM | 28.2 µM | 0.0707 µM | 18 µM | 0.481 µM | > 81 µM
NC(Cc1c[nH]c2cc(F)ccc12)C(=O)O (stereo not given) | 1460 µM | > 2500 µM | 820 µM | > 2500 µM | 792 µM | > 2500 µM | 1490 µM | > 2500 µM | 850 µM | > 2500 µM | 1810 µM | > 2500 µM | 1700 µM | > 2500 µM | 877 µM | > 2500 µM | 1180 µM | > 2500 µM | 1440 µM | > 2500 µM
C[C@@H]1OC(=O)NN=C1c1ccc(-c2ccc(F)cc2)c(C(F)(F)F)c1 | 10.1 µM | 24.9 µM | 4.78 µM | 18.8 µM | 6.01 µM | 20.3 µM | 3.72 µM | 19.2 µM | 10.3 µM | 25.4 µM | 10.5 µM | 26.8 µM |  |  | 12.6 µM | 27.5 µM | 5.95 µM | 19.5 µM | 11 µM | 23.3 µM
Cc1ccc(-n2c3c(c4c(CN)c(O)ccc42)CCc2ccccc2C3=O)cc1 | 14.8 µM | 29.2 µM | 16.3 µM | 32.2 µM | 10.2 µM | 22.3 µM | 18 µM | 34.1 µM | 30.3 µM | > 100 µM | 4.77 µM | 19.3 µM | 14 µM | 27 µM | 18.1 µM | 34.4 µM | 13.2 µM | 29.1 µM | 19.9 µM | 38.4 µM
COc1cc2c(cc1OC)-c1ncc3cc(OC)c(OC)c(OC)c3c1C2 | 2.54 µM | 48.7 µM | 16.8 µM | 35.8 µM | 15.9 µM | 43.9 µM | 16.4 µM | 52.6 µM |  |  | 17.1 µM | > 100 µM | 7.42 µM | 26.8 µM | 33 µM | > 100 µM | 17.9 µM | 95.1 µM | 79.9 µM | > 100 µM
